From US20100189811A1, “Biocide compositions comprising 3-methylisothiazolin-3-one and a haloalkyl sulphone” (THOR GmbH, priority 2009, published 2010)

Key:
[1] = system: Aspergillus niger (ATCC16404); assay: Minimum inhibitory concentration and synergy index in Sabouraud glucose agar, visual test for growth; type: cell-based; details: 72 hours at 25° C.; for Synergy index Qa/QA + Qb/QB: method of Kull et al.
Protocol: (§1) The synergism of a combination of MIT with diiodomethyl p-tolyl sulphone was tested. Test organisms used were the Gram-negative bacterium Pseudomonas aeruginosa (ATCC 9027) and the mould Aspergillus niger (ATCC16404). For the purpose of the test, mixtures containing different concentrations of MIT and diiodomethyl p-tolyl sulphone were prepared and tested for their action on Pseudomonas aeruginosa and Aspergillus niger respectively. The active compound mixtures in the corresponding concentrations were introduced into selective nutrient media (nutrient agar for Pseudomonas aeruginosa and Sabouraud glucose agar for Aspergillus niger) and the test organisms were likewise incorporated into the agar. The cell density in the agar was in each case 10^6 microbes per ml in the case of Pseudomonas aeruginosa and 10^5 spores per ml in for Aspergillus niger.
(§2) The incubation time is 48 hours (bacteria) or 72 hours (moulds) at 30° C. and 25° C. respectively. This was followed by visual testing for growth of Pseudomonas aeruginosa and Aspergillus niger. In the case of Pseudomonas aeruginosa, growth was apparent by hazing or greenish coloration of the nutrient medium, or by formation of colonies on the surface of the agar. In the case of Aspergillus niger, the growth was apparent through the formation of colonies or mycelia on the surface of the agar. In this way the minimum inhibitory concentrations (MICs) of the two active compounds were determined, individually and in combination. The MIC is the concentration at which there is no longer any hazing, colouring of the agar or colony formation on the surface of the agar (Pseudomonas aeruginosa) and no formation of colonies or mycelia on the surface of the agar (Aspergillus niger).
(§3) The synergism that occurred was presented numerically by calculation of the synergy index (SI). This calculation was made using the common method of F. C. Kull et al., Applied Microbiology, vol. 9 (1961), p. 538. SI is calculated there in accordance with the following formula:
(§4) Synergy index SI=Qa/QA+Qb/QB
(§5) In the application of this formula to the MIT+DIMTS biocide system tested here, the variables in the formula have the following definition:
(§6) Qa=concentration of MIT in the mixture of diiodomethyl p-tolyl sulphone+MIT QA=concentration of MIT as sole biocide Qb=concentration of diiodomethyl p-tolyl sulphone in the biocide mixture QB=concentration of diiodomethyl p-tolyl sulphone as sole biocide
(§7) If the synergy index has a value of more than 1, this means that there is an antagonism.
(§8) If the synergy index adopts a value of 1, this means that the action of the two biocides is additive. If the synergy index takes on a value of below 1, this means that there is synergism of the two biocides.

[2] = system: Pseudomonas aeruginosa (ATCC 9027); assay: Minimum inhibitory concentration and synergy index in nutrient agar, visual test for growth; type: cell-based; details: 48 hours at 30° C.; for Synergy index Qa/QA + Qb/QB: method of Kull et al.
Protocol: as §1, §2, §3, §4, §5, §6, §7, §8

[3] = concentration of DIMTS (sole or in the mixture) that shows an endpoint
[4] = concentration of MIT (sole or in the mixture) which shows an endpoint

Row | Structure (SMILES) | Synergy index Qa/QA + Qb/QB [1] | MHK Qb (DIMTS) [1, 3] [ppm] | Synergy index Qa/QA + Qb/QB [2] | MHK Qb (DIMTS) [2, 3] [ppm] | MHK Qa (MIT) [1, 4] [ppm] | MHK Qa (MIT) [2, 4] [ppm]
1 | Cc1ccc(S(=O)(=O)C(I)I)cc1 [DIMTS, diiodomethyl p-tolyl sulphone] | 1.00 | 10 | 1.00 | 1250 |  | 
2 | Cn1sccc1=O [MIT, 2-methylisothiazolin-3-one] | 1.00 |  | 1.00 |  | 800 | 40
